Data taken from US10710988B2, “Piperazine derivative” (Astellas Pharma Inc., priority 2016, dated 2020).
Read-outs that look alike come from different tables or passages of the source.

Assays:
rat MC4 receptor = target: T1, rat MC4 receptor (Rattus norvegicus, UniProt P70596); test: Rat MC4 receptor activation, cAMP production in cells transiently expressing the receptor; assay type: cell-based; settings: FreeStyle 293-F cells expressing rat MC4 receptor, α-MSH maximum = 100%
T1 construct: expressed in transfected cells; host or cells: FreeStyle 293-F cells (transient, electroporation)
Text: (1) Construction of Rat MC4 Receptor-Expressing Vector
A rat MC4 receptor gene (GenBank Accession No.: NM_013099.3) was introduced into an expression vector pcDNA™ 3.1N/V5-His TOPO (registered trademark) (Thermo Fisher Scientific Inc.).
(2) Construction of Cells Transiently Expressing Rat MC4 Receptor
An expression vector for a rat MC4 receptor was introduced into FreeStyle™ 293-F cells (Thermo Fisher Scientific Inc.). For the introduction, electroporation was employed. That is, 1×10^7 FreeStyle™ 293-F cells were suspended in 80 μL of an electroporation buffer (Thermo Fisher Scientific Inc.), and 20 μg of the expression vector was added thereto. The resultant was put into a cuvette (OC-100 Processing Assembly, MaxCyte, Inc.) and electroporated with MaxCyte STX (registered trademark) (MaxCyte, Inc.). The cells were cultured for a day, suspended in a Cell Banker (registered trademark) 1 (TAKARA BIO INC. or JUJI FIELD Inc.), and stored frozen until they were used.
(3) Measurement of Amount of cAMP Production
Measurement was carried out in accordance with the attached instructions, using a LANCE (registered trademark) Ultra cAMP Kit (PerkinElmer, Inc.). That is, after dissolution in DMSO, the test compound (a final concentration of 1 pM to 30 μM) diluted with an assay buffer (Hank's balanced salt solution, 5 mM HEPES, 0.5 mM IBMX, 0.1% bovine serum albumin, pH 7.4), or α-MSH (Bachem Inc., a final concentration of 1 pM to 30 μM) was added to OptiPlate-384 (PerkinElmer, Inc.). Furthermore, the suspension of the cells transiently expressing the rat MC receptor that was prepared using the assay buffer was added thereto at 1,000 cells/well, and then left to stand at room temperature for about 1 hour. Thereafter, an Eu-cAMP tracer solution and an ULight™-anti-cAMP solution were added thereto, and the resulting solution was left to stand at room temperature for about 1 hour. The amount of cAMP was calculated using EnVision (registered trademark) (PerkinElmer Inc).
For the agonistic activity, an efficacy (EC50 (μM)) was calculated by a non-linear regression method with a Sigmoid-Emax model, by defining the maximum reaction using α-MSH as 100% and the reaction using a vehicle alone as 0%, respectively.

[1] = tested on: phenylephrine-induced urethral pressure increase; test: Effect on rat urethral pressure (phenylephrine-induced urethral pressure increase); assay type: in vivo; settings: read-out: ID40
Method: The present Test Example was performed by partially modifying the technique reported as a testing system for evaluating a urethral resistance-reducing action (European Journal of Pharmacology, 679, 127-131 (2012)). Male Wistar rats (Charles River Laboratories Japan, Inc.) were anesthetized with urethane (1.2 g/kg ip), and immobilized in a supine position. The midline incision was performed in the lower abdominal portion such that the bladder was exposed. The bladder apex was incised, and from the incision site, a microchip pressure transducer catheter (3.5 Fr, Millar, Inc) was inserted and implanted into the inside of the urethra. In addition, a cannula for drug administration was implanted into the femoral vein. After the urethral pressure was stabilized, phenylephrine hydrochloride (Sigma-Aldrich Co. LLC., 30 μg/kg) was intravenously administered to induce an increase in the urethral pressure. At an interval of about 30 minutes, the above operation was repeated twice or more so as to confirm the stability of the phenylephrine hydrochloride-induced urethral pressure increasing reaction. Then, a test compound (dissolved in 20% dimethyl acetamide, 10% Cremophor (registered trademark), and 70% physiological saline) was intravenously administered, and after 5 minutes, phenylephrine hydrochloride was administered. The procedure of the administration of the test compound and the administration of phenylephrine hydrochloride was repeated at an interval of about 30 minutes, and 3 to 5 doses of the test compound was evaluated (the test compound was administered at increasing doses). The obtained data was introduced into a personal computer through PowerLab (registered trademark) (ADInstruments, Inc.) and analyzed using LabChart (registered trademark) (ADInstruments, Inc.). For the evaluation, the value (AUC value, mmHg-s) of the area under the urethral pressure for one minute before and after administration of phenylephrine hydrochloride was determined to calculate the difference (ΔAUC value) between the AUC value before the administration of phenylephrine hydrochloride and the AUC value after the administration of phenylephrine hydrochloride. The ΔAUC value obtained before administering the test compound was regarded as being 100%, and based on this, the ratio (reaction rate) of the ΔAUC value of the test compound at each dose was calculated. The dose at which the obtained reaction rate became 60% (40% as an inhibition rate) was defined as ID40, and the ID40 values of the test compounds were calculated by non-linear regression.

[2] = male Wistar rats, urethane anesthesia, intravenous, dose giving 40% inhibition of phenylephrine-induced urethral pressure ΔAUC

T1 sequence (P70596 whole entry): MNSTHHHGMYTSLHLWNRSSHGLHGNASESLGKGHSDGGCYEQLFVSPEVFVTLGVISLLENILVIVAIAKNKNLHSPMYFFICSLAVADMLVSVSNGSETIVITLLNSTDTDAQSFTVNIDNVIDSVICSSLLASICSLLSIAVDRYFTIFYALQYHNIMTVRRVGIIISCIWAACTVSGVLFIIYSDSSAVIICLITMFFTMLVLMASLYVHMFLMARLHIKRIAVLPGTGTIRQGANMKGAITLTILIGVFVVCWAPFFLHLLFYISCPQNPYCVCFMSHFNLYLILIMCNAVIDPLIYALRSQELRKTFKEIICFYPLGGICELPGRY

Row | EC50 (rat MC4 receptor) [nM] | SMILES | ED40 [1, 2] [mg/kg] | ED40 ([1]; iv) [mg/kg]
1 | 2 | CC(=O)N[C@@H](CC(C)(C)C)C(=O)N1C[C@H](C)N(C(=O)[C@@H]2CN(C(C)(C)C)C[C@H]2c2ccc(F)cc2F)C[C@H]1C.Cl [Example 4, N-{(2S)-1-[(2R,5S)-4-{[(3 S,4R)-1-tert-butyl-4-(2,4-difluorophenyl)pyrrolidin-3-yl]carbonyl}-2,5-dimethylpiperazin-1-yl]-4,4-dimethyl-1-oxopentan-2-yl}acetamide monohydrochloride] | 11 | 
2 | 16 | CC(=O)N[C@H](C(=O)N1CCN(C(=O)[C@@H]2CN(C(C)(C)C)C[C@H]2c2ccc(F)cc2F)[C@@H](C)C1)C1CCCCC1.Cl [Example 6, N-{(1S)-2-[(3S)-4-{[(3S,4R)-1-tert-butyl-4-(2,4-difluorophenyl)pyrrolidin-3-yl]carbonyl}-3-methylpiperazin-1-yl]-1-cyclohexyl-2-oxoethyl}acetamide monohydrochloride] | 46 | 
3 | 4.7 | CC(=O)N[C@@H](CC(C)(C)C)C(=O)N1CCN(C(=O)[C@@H]2CN(C(C)(C)C)C[C@H]2c2ccc(F)cc2F)[C@@H](C)C1.Cl [Example 8] | 15 | 
4 | 10 | CC(=O)N[C@@H](CC(C)(C)C)C(=O)N1C[C@H](C)N(C(=O)C2CN(C(C)(C)C)CC2c2ccc(F)cc2)C[C@H]1C.Cl (stereo partly shown) [Example 11] | 28 | 

Row | SMILES | EC50 (rat MC4 receptor) [nM] | ED40 [1, 2] [mg/kg] | ED40 ([1]; iv) [mg/kg]
5 | CC(=O)N[C@@H](CC(C)C)C(=O)N1CCN(C(=O)[C@@H]2CN(C(C)(C)C)C[C@H]2c2ccc(Cl)cc2F)C[C@H]1C [Example 5] | 3.3 |  | 25
